Laboratory results reported in patent US4146721A, “Pyrazol-4-acetic acid compounds” (priority 1970, dated 1979).
Where two headings read alike, the source gives them in different places.

Experiments:
mouse [1] = details: Table II; I.P.
Procedure: (§2) ^3) Dose, at which 50% of the animals died within 72 hours after
administration of the substance

[2] = Analgesic effect: delay in the defense reaction of the mouse upon thermal stimulation of the root of the tail by a heat beam; assay type: in vivo; details: mouse, in vivo; LD5 I.P. / ED40 oral; read-out: Therapeutic Index LD5/ED40
Procedure: (§1) The analgesic effect is measured as the mean delay in the defense reaction of the mouse by 20% (ED20) and 40% (ED40) during 2 hours upon thermal stimulation of the root of the tail by a heat beam relative to aminophenazone.

mouse [3] = test: as above; assay type: in vivo; details: oral; for ED20 / ED40: Mus musculus; for ED20: mean delay in defense reaction by 20% during 2 hours; for ED40: mean delay in defense reaction by 40% during 2 hours; for ED20 Relative / ED40 Relative: relative to aminophenazone
Procedure: as §1

in vivo = details: mouse, ip
Procedure: as §2
administration of the substance

[4] = test system: Carrageenin edema of the rear paw of the rat; test: Carrageenin edema of the rear paw (antiphlogistic effect); assay type: in vivo; details: for Retardation of the Carrageenin Edema, Relative Effect: Phenylbutazon = 1.0; for ED40: read-out: Retardation of the Carrageenin Edema by 40% by mg/kg oral
rat = test: Lowering of the normal temperature of the rat; assay type: in vivo; details: for ED (15 degC temperature lowering): ip, read-out: dose i.p. that lowered the normal temperature of the rat by 15.° C.
Procedure: In addition thereto, the new pyrazole compounds of the invention effect a lowering of the temperature in mammalians: 60 mg/kg of compound A and 25 mg/kg of compound L, administered i.p. to the rat lowered the normal temperature of the rat by 15.° C.

[5] = test system: ultraviolet erythema of the skin on the back of the guinea pig; test: Ultraviolet erythema of the skin on the back (antiphlogistic effect); assay type: in vivo; details: for ED50: Cavia porcellus, read-out: Retardation of the UV-Erythema by 50% by mg/kg oral; for Retardation of the UV-Erythema, Relative Effect: Phenylbutazon = 1.0
[6] = cited from earlier work
[7] = rat, oral, dose for 40% retardation
[8] = Toxicity LD50 after a single dose in the mouse, Table I, i.p., 50% of the animals died within 72 hours
[9] = guinea pig, oral, dose for 50% retardation
[10] = rat, lowering by 15.° C. (so in the source)

Work on `O=C(O)Cc1cnn(-c2ccccc2)c1-c1ccc(Cl)cc1` [I, 1-phenyl-5-(p-chlorophenyl)-pyrazol-4-acetic acid] yielded an LD5 (mouse [1]) of 180 mg/kg, a selectivity ratio [2] of 2.6 and an ED20 (mouse [3]) of 50 mg/kg. For the same compound, the ED40 (mouse [3]) was 70 mg/kg, the “ED20 Relative” value (mouse [3]) was 1.0 and the “ED40 Relative” value (mouse [3]) was 2.0. It also gave an LD50 at 72 h (in vivo; LD50, Table II, I.P.) of 279 mg/kg.

In the case of `COc1ccc(-n2nc(C)c(CC(=O)O)c2C)cc1` [F, 3,5-dimethyl-1-(p-methoxyphenyl)-pyrazol-4-acetic acid], the “Retardation of the Carrageenin Edema, Relative Effect” value ([4]; rat, oral) is reported as 0.6, the ED40 [4, 7] is reported as 50 mg/kg and the LD50 at 72 h (in vivo; [8]) is reported as 1000 mg/kg.

`Cc1nn(-c2ccccc2)c(C)c1CC(N)=O` [P, 3,5-dimethyl-1-phenyl-pyrazol-4-acetamide] showed an LD5 (mouse [1]) of 500 mg/kg, a selectivity ratio [2] of 3.3 and an ED20 (mouse [3]) of 50 mg/kg. The ED40 (mouse [3]) was 150 mg/kg, the “ED20 Relative” value (mouse [3]) was 1.0 and the “ED40 Relative” value (mouse [3]) was 0.9. It also gave an LD50 at 72 h (in vivo; LD50, Table II, I.P.) of 500 mg/kg.

With `O=C(O)Cc1c(-c2ccccc2)nn(-c2ccccc2)c1-c1ccccc1` [A, 1,3,5-triphenyl-pyrazol-4-acetic acid] the “lowering of the normal temperature of the rat” value (rat; 60 mg/kg i.p.) was 15. ° C, the ED (15 degC temperature lowering) (rat; Rattus norvegicus) was 60 mg/kg and the ED50 ([5]; po) was 3 mg/kg. For the same compound, the “Retardation of the UV-Erythema, Relative Effect” value ([5]; guinea pig, oral) was 5.3, the “Retardation of the Carrageenin Edema, Relative Effect” value ([4]; rat, oral) was 6.0 and the ED40 ([4]; Rattus norvegicus, po) was 5 mg/kg. The LD50 at 72 h (in vivo) was 312 mg/kg.

In the case of `CC(C(=O)O)c1c(-c2ccccc2)nn(-c2ccccc2)c1-c1ccccc1` (stereo not drawn) [H, α-methyl-1,3,5-triphenyl-pyrazol-4-acetic acid], the ED50 [5, 9] is reported as 5 mg/kg, the “Retardation of the UV-Erythema, Relative Effect” value ([5]; guinea pig, oral) is reported as 3.2 and the “Retardation of the Carrageenin Edema, Relative Effect” value ([4]; rat, oral) is reported as 1.0. The ED40 [4, 7] was 30 mg/kg and the LD50 at 72 h (in vivo; [8]) was 199 mg/kg.

With `Cc1nn(-c2ccccc2)c(-c2ccccc2)c1CC(=O)O` [G, 3-methyl-1,5-diphenyl-pyrazol-4-acetic acid] the ED50 [5, 9] was 20 mg/kg, the “Retardation of the UV-Erythema, Relative Effect” value ([5]; guinea pig, oral) was 0.8 and the LD50 at 72 h (in vivo; [8]) was 500 mg/kg.

For `COc1cccc(-c2nn(-c3ccccc3)c(-c3cccc(OC)c3)c2CC(=O)O)c1` [N, 1-phenyl-3,5-bis-(m-methoxyphenyl)-pyrazol-4-acetic acid], the LD5 (mouse [1]) was 200 mg/kg, the selectivity ratio [2] was 3.6 and the ED20 (mouse [3]) was 30 mg/kg. For the same compound, the ED40 (mouse [3]) was 55 mg/kg, the “ED20 Relative” value (mouse [3]) was 1.7 and the “ED40 Relative” value (mouse [3]) was 2.5. The LD50 at 72 h (in vivo; LD50, Table II, I.P.) was 312 mg/kg.

With `O=C(O)Cc1c(-c2ccco2)nn(-c2ccccc2)c1-c1ccco1` [B, 1-phenyl-3,5-di-(2-furyl)-pyrazol-4-acetic acid] the LD5 (mouse [1]) was 190 mg/kg, the selectivity ratio [2] was 3.8 and the ED20 (mouse [3]) was 10 mg/kg. For the same compound, the ED40 (mouse [3]) was 50 mg/kg, the “ED20 Relative” value (mouse [3]) was 5.0 and the “ED40 Relative” value (mouse [3]) was 2.8. The ED50 [5, 9] was 1.5 mg/kg, the “Retardation of the UV-Erythema, Relative Effect” value ([5]; guinea pig, oral) was 10.7 and the “Retardation of the Carrageenin Edema, Relative Effect” value ([4]; rat, oral) was 3.0. For the same compound, the ED40 [4, 7] was 10 mg/kg, the LD50 at 72 h (in vivo; LD50, Table II, I.P.) was 373 mg/kg and the LD50 at 72 h (in vivo; [8]) was 370 mg/kg.

For `CCCCn1nc(C)c(CC(=O)O)c1C` [E, 3,5-dimethyl-1-n-butyl-pyrazol-4-acetic acid], the “Retardation of the Carrageenin Edema, Relative Effect” value ([4]; rat, oral) was 0.6, the ED40 [4, 7] was 50 mg/kg and the LD50 at 72 h (in vivo; [8]) was 1400 mg/kg.

With `Cc1c(N(C)C)c(=O)n(-c2ccccc2)n1C` [Aminophenazone, reference compound] the LD5 (mouse [1]) was 270 mg/kg, the ED (15 degC temperature lowering) (rat; [10]) was 70 mg/kg and the selectivity ratio [2] was 1.9. For the same compound, the ED20 (mouse [3]) was 50 mg/kg, the ED40 (mouse [3]) was 140 mg/kg and the LD50 at 72 h (in vivo) was 330 mg/kg.

With `Cc1nn(-c2ccccc2)c(C)c1CC#N` [Q, 3,5-dimethyl-1-phenyl-pyrazol-4-acetonitrile] the ED20 (mouse [3]) was 20 mg/kg, the ED40 (mouse [3]) was 40 mg/kg and the “ED20 Relative” value (mouse [3]) was 2.5. The “ED40 Relative” value (mouse [3]) was 3.5.

With `CCOC(=O)Cc1c(-c2ccccc2)nn(-c2cccc(C(F)(F)F)c2)c1-c1ccccc1` [O, 3,5-diphenyl-1-(α,α,α-trifluoro-m-tolyl)-pyrazol-4-acetic acid-ethyl ester] the ED20 (mouse [3]) was 50 mg/kg, the ED40 (mouse [3]) was 70 mg/kg and the “ED20 Relative” value (mouse [3]) was 1.0. For the same compound, the “ED40 Relative” value (mouse [3]) was 2.0.

In the case of `COc1ccc(-c2nn(-c3ccccc3)cc2CC#N)cc1` [R, 1-phenyl-3-(p-methoxyphenyl)-pyrazol-4-acetonitrile], the ED20 (mouse [3]) is reported as 50 mg/kg, the ED40 (mouse [3]) is reported as 80 mg/kg and the “ED20 Relative” value (mouse [3]) is reported as 1.0. For the same compound, the “ED40 Relative” value (mouse [3]) was 1.8.

Work on `O=C(O)Cc1c(-c2ccccc2)nn(-c2ccc(Cl)cc2)c1-c1ccccc1` [L, 3,5-diphenyl-1-(p-chlorophenyl)-pyrazol-4-acetic acid] yielded a lowering of the normal temperature of the rat (rat; 25 mg/kg i.p.) of 1.5 ° C, an ED (15 degC temperature lowering) (rat; [10]) of 25 mg/kg and an ED20 (mouse [3]) of 15 mg/kg. The ED40 (mouse [3]) was 55 mg/kg, the “ED20 Relative” value (mouse [3]) was 3.3 and the “ED40 Relative” value (mouse [3]) was 2.5. It also gave an LD50 at 72 h (in vivo; LD50, Table II, I.P.) of roughly 80 mg/kg.

Compound `CCCCn1nc(-c2ccccc2)c(CC(=O)O)c1-c1ccccc1` [K, 1-n-butyl-3,5-diphenyl-pyrazol-4-acetic acid] has an LD5 (mouse [1]) of 360 mg/kg, a selectivity ratio [2] of 4.5 and an ED20 (mouse [3]) of 20 mg/kg. For the same compound, the ED40 (mouse [3]) was 80 mg/kg, the “ED20 Relative” value (mouse [3]) was 2.5 and the “ED40 Relative” value (mouse [3]) was 1.8. The LD50 at 72 h (in vivo; LD50, Table II, I.P.) was 430 mg/kg.

For `O=C(O)Cc1c(-c2ccc(Cl)cc2)nn(-c2ccccc2)c1-c1ccc(Cl)cc1` [M, 1-phenyl-3,5-bis-(p-chlorophenyl)-pyrazol-4-acetic acid], the LD5 (mouse [1]) was 38 mg/kg, the selectivity ratio [2] was 1.9 and the ED20 (mouse [3]) was 7 mg/kg. The ED40 (mouse [3]) was 20 mg/kg, the “ED20 Relative” value (mouse [3]) was 7.1 and the “ED40 Relative” value (mouse [3]) was 7.0. For the same compound, the LD50 at 72 h (in vivo; LD50, Table II, I.P.) was 51 mg/kg.

For `O=C(O)Cc1c(-c2ccccc2)nn(-c2cccnc2)c1-c1ccccc1` [C, 3,5-diphenyl-1-(3-pyridyl)-pyrazol-4-acetic acid], the ED50 [5, 9] was 2.5 mg/kg, the “Retardation of the UV-Erythema, Relative Effect” value ([5]; guinea pig, oral) was 6.4 and the “Retardation of the Carrageenin Edema, Relative Effect” value ([4]; rat, oral) was 1.5. The ED40 [4, 7] was 20 mg/kg and the LD50 at 72 h (in vivo; [8]) was 1150 mg/kg.

With `O=C(O)Cc1cn(-c2ccccc2)nc1-c1ccc(Cl)cc1` [D, 1-phenyl-3-(p-chlorophenyl)-pyrazol-4-acetic acid] the ED50 [5, 9] was 3 mg/kg and the ED40 [4, 7] was 2.5 mg/kg.

In the case of `CCCCC1C(=O)N(c2ccccc2)N(c2ccccc2)C1=O` [Phenylbutazon, reference compound], the ED20 (mouse [3]) is reported as 150 mg/kg, the ED50 [5, 9] is reported as 16 mg/kg and the ED40 [4, 7] is reported as 30 mg/kg.

With `COc1ccc2c(c1)c(CC(=O)O)c(C)n2C(=O)c1ccc(Cl)cc1` [Indomethacin, 2-methyl-5-methoxy-1-(p-chlorobenzoyl)-indol-3-acetic acid, reference compound] the ED50 ([5]; po) was 20 mg/kg, the “Retardation of the UV-Erythema, Relative Effect” value ([5]; guinea pig, oral) was 0.8 and the “Retardation of the Carrageenin Edema, Relative Effect” value ([4]; rat, oral) was 7.5. For the same compound, the ED40 ([4]; Rattus norvegicus, po) was 4 mg/kg, the side effects ([6]; Chem. Eng. News 46 (1968)) was “many undesirable side effects” and the “antiphlogistic, analgesic and antipyretic effectiveness compared with 4-n-butyl-1,2-diphenyl-3,5-dioxopyracoline” value ([6]; J. Am. Chem. So. 85, 488 (1963)) was “surpassing in this respect the effectiveness”. For the same compound, the LD50 at 72 h (in vivo) was 45 mg/kg.
